Where a name gives a salt, the structure may show the parent alone.
Biological target: T1, dopamine transporters (DAT) in the striatal nuclei (Homo sapiens, UniProt Q01959)
T1 construct: from tissue; host or cells: striatum (caudate and putamen) of living volunteers, imaged in vivo by SPECT
Experiment: [123I]β-CIT SPECT imaging of striatal DAT binding (V3″ ratio)
Type: in vivo

T1 sequence (Q01959 whole entry): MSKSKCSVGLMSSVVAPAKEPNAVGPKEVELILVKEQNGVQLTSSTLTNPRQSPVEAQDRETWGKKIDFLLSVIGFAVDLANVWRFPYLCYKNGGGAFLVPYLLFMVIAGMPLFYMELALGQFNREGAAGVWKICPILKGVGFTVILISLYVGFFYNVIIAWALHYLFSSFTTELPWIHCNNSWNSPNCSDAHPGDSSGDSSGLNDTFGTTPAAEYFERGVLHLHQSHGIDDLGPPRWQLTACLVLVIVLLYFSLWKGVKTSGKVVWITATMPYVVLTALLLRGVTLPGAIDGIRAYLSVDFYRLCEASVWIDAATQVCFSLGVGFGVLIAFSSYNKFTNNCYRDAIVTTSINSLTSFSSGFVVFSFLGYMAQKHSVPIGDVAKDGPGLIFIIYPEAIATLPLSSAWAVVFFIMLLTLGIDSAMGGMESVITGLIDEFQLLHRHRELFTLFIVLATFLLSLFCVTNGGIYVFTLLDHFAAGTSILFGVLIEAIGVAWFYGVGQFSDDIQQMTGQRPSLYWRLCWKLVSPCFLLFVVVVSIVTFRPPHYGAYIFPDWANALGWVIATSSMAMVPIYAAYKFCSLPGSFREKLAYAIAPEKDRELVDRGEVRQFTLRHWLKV

St-V3″ (Mean ± SD), Scan 2 (striatum, specific to non-specific [123I]β-CIT binding, Day 8, Group 1 bupropion HCl SR 100 mg po qAM, Group 2 citalopram 20 mg po BID, days 1-8, healthy volunteers): 7.42 ± 1.13 | St-V3″ (Mean ± SD), Scan 3 (striatum, Day 16, Group 1 bupropion HCl SR 100 mg po BID days 9-16, Group 2 citalopram 20 mg po BID plus bupropion HCl SR 100 mg qAM days 9-16): 7.37 ± 1.69 | change in striatal DAT binding (versus baseline Scan 1, RMANOVA, paired t-test with Bonferroni correction): did not lead to any significant changes
SMILES: CC(NC(C)(C)C)C(=O)c1cccc(Cl)c1 (stereo not drawn) [bupropion hydrochloride]

Source: patent US20030130336A1, “Method of determining the activity of a central nervous system drug on striatal dopamine transporter populations” (Pfizer Inc., priority 2002, published 2003)
